Measured values reported in patent US7390837B2, “Germicidal compositions containing phenylmalonaldehyde-type compounds, or mixtures of phenylmalonaldehyde-type compounds and phthalaldehydes, and methods of using such compositions for disinfection or sterilization” (Ethicon, Inc., priority 2004, dated 2008).

Assays:
[1] = system: Mycobacterium terrae bacteria; assay: bacterial suspension test; type: cell-based; conditions: for Germicidal Efficacy: summary Table 14
Procedure: The bacterial suspension test that was employed is described in Section VII.
The solutions were prepared by adding the appropriate amounts of the germicidal compounds to an aqueous solution. Unless otherwise mentioned all concentrations reported herein are expressed in (w/v) %. The pH of the solution was not adjusted. The tests were conducted at a temperature of about 20° C. (room temperature). The results are presented in terms of log reductions/mL. It is understood that these examples, as well as the other examples herein, are to be construed as merely illustrative, and not limiting.
In this test method, 9 mL of the germicide to be tested is placed in a tube, put into a water bath and allowed to come to the desired temperature. One mL of the test organism, including at least 7 logs/mL of Mycobacterium terrae bacteria, is added to the 9 mL of the germicide to be tested. […] It will be appreciated by those skilled in the art that other concentrations may be utilized by proper dilution and accounting.
At appropriate time intervals, 1 mL aliquots of the germicide-cell suspension were removed and added directly into 9 mL of a 1% glycine solution (neutralizer) and mixed thoroughly to neutralize the germicide in the transferred suspension. The glycine solution was prepared from solid glycine, which is available from VWR Scientific Products, among others. The above-identified 10 mL neutralized solution was then poured through a membrane filter having an average pore size of 0.45 micrometers. The filter was then rinsed twice with at least 150 mL of the 1% glycine solution per rinse. The filter was then placed on an agar plate and incubated for twenty-one days at 37° C. In the above procedure, if dilution was needed, then the 1 mL germicidal-cell suspension was diluted in 99 mL of a phosphate buffer before addition to the 9 mL of the 1% glycine solution. The phosphate buffer was DiLu-LoK™ Butterfields Phosphate Buffer, available from Hardy Diagnostics, of Santa Maria, Calif.
The surviving colonies are then counted. The data is plotted as S/So vs. time. So is the initial count of the bacteria in the above 10 mL solution which is at least 10^6 bacteria/mL, and S is the surviving bacteria from the above filter on the agar plate. The results of the experiments were presented in terms of log reductions. Log reduction is the difference between log(So) and log(S). As one example, if log(So)=6.2, and if there were 100 survivors, then the log(S)=2, and the log reduction was reported as 4.2.

solubility in water = type: physicochemical

With 4-pyridinyl-propanedial the “Log Reductions/mL” value ([1]; Saturated (~2.3% w/v), 5 min, 20° C.) was 4.0 log reductions/mL.
For `O=CC(c1ccccc1)C(O)S(=O)(=O)[O-].[Na+]` (centres unmarked) [1-hydroxy-3-oxo-2-phenyl-propane-1-sulfonic acid, sodium salt], the “Log Reductions/mL” value ([1]; 0.6%, 20° C., 60 min, sodium salt) was “Total Kill” and the “Log Reductions/mL” value ([1]; 2.5%, 20° C., 10 min, sodium salt) was “total kill”.
With `O=Cc1ccc(Br)cc1C=O` [4-bromo-phthalaldehyde] the “Log Reductions/mL” value ([1]; 0.1%, 20° C., exposure time 30 minutes) was “Total Kill”.
For `O=Cc1ccc(Cl)cc1C=O` [4-chloro-phthalaldehyde], the “Log Reductions/mL” value ([1]; 2.7 w/v % in 20% isopropanol, 20° C., 5 min) was “Total Kill”.
With `O=Cc1ccc(F)cc1C=O` [4-fluoro-phthalaldehyde] the “Log Reductions/mL” value ([1]; 0.25%, 20° C., exposure time 60 minutes) was “Total Kill”.
In the case of `O=Cc1ccccc1C(O)S(=O)(=O)[O-].[Na+]` (centres unmarked) [(2-formyl-phenyl)-hydroxy-methane sulfonic acid, sodium salt], the “Log Reductions/mL” value ([1]; 9.1%, 20° C., 5 min, listed as (2-formyl-phenyl)-hydroxy-methane sulfonate, sodium salt) is reported as “confluent” and the “Log Reductions/mL” value ([1]; 9.1%, 20° C., 5 min, listed as H-SULF, sodium salt) is reported as “Confluent”.
With `O=Cc1cccc(C=O)c1` [IPA, isophthalaldehyde, reference compound] the “Log Reductions/mL” value ([1]; 0.3%, dissolved in 20% isopropanol, 20° C., 5 min (Table 11)) was “Confluent”, the “Log Reductions/mL” value ([1]; 0.3%, dissolved in 20% isopropanol, 20° C., 5 min (Table 11), listed as EPA) was “confluent” and the “Log Reductions/mL” value ([1]; 0.3%, dissolved in 20% isopropanol, 20° C., 5 min (Table 15)) was “Confluent”. For the same molecule, the “Germicidal Efficacy” value [1] was “Poor”.
With `O=Cc1ccccc1C=O` [OPA, phthalaldehyde] the “Germicidal Efficacy” value [1] was “Good” and the solubility in water (solubility in water) was “about 5 % by weight”.
With `O=Cc1ccc(C=O)cc1` [TPA, terephthalaldehyde, reference compound] the “Log Reductions/mL” value ([1]; 0.2%, dissolved in 20% isopropanol, 20° C., 5 min) was “Confluent” and the “Germicidal Efficacy” value [1] was “Poor”.
For `O=CC(C=O)c1ccccc1` [phenyl-propanedial], the “Log Reductions/mL” value ([1]; 0.4%, 20° C., 60 min (Table 5)) was “Total Kill”, the “Log Reductions/mL” value ([1]; 0.44%, 20° C., 60 min (Table 15)) was “Total Kill” and the “Log Reductions/mL” value ([1]; 0.66%, 20° C., 15 min (Table 15)) was “Total Kill”. The “Log Reductions/mL” value ([1]; 0.7%, 20° C., 15 min (Table 5)) was “Total Kill”, the logs killed ([1]; 1% solution, 5 minutes, 20° C.) was “more than 4 logs” and the “Log Reductions/mL” value ([1]; ~1%, 20° C., 5 min (Table 15)) was 4.5 log reductions/mL. For the same molecule, the solubility in water (solubility in water) was “about 1%”.
